From US20260347347A1, “2-AZA-AND 2-OXABICYCLO[2.1.1]HEXANE DERIVATIVES AS FACTOR XIIA ENZYME INHIBITORS” (KALVISTA PHARMACEUTICALS LIMITED, priority 2022, published 2026)

Biological target: T1, Human Factor XIIa (Homo sapiens, UniProt P00748)
T1 construct: purchased Enzyme Research Laboratories
T1 sequence (P00748 373-615 limits assumed): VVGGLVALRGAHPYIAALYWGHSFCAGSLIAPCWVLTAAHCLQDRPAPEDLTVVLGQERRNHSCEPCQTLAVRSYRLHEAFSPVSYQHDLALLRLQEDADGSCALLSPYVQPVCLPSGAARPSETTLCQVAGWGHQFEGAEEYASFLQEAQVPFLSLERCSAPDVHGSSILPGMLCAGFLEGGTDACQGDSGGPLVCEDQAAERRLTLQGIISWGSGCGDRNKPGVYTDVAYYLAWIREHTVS
T1 sequence (P00748 20-372 partner limits assumed): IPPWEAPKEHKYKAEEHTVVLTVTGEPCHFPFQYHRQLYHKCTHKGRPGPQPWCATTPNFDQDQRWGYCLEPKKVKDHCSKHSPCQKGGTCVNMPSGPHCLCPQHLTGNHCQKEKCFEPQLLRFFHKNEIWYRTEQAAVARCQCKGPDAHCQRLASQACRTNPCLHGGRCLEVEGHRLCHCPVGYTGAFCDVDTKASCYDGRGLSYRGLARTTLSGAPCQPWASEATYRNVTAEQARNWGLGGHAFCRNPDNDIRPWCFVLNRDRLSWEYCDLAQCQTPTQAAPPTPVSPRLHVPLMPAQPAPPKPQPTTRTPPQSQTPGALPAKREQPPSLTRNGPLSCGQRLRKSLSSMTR
Assay: Determination of FXIIa inhibition (in vitro IC50 assay, fluorogenic substrate H-DPro-Phe-Arg-AFC)
Type: biochemical
Conditions: human Factor XIIa; fluorogenic substrate H-DPro-Phe-Arg-AFC at Km concentration; 5 min, 25 °C; class symbols; read-out: Human FXIIa IC50
Description: In vitro inhibition of Factor XIIa was determined using an IC50 assay based on standard literature methods (see e.g Baeriswyl et al., ACS Chem. Biol., 2015, 10 (8) 1861; Bouckaert et al., European Journal of Medicinal Chemistry 110 (2016) 181). Human Factor XIIa (Enzyme Research Laboratories) was incubated at 25 °C with the fluorogenic substrate H-DPro-Phe-Arg-AFC (Peptide Protein Science) and various concentrations of the test compound. Protease activity was measured by monitoring the accumulation of liberated fluorescence from the substrate over 5 min at 25 °C. The linear rate of fluorescence increase per minute was expressed as percentage (%) activity. The Km for the cleavage of the substrate by FXIIa was determined by standard transformation of the Michaelis-Menten equation. The compound inhibitor assays were performed at substrate Km concentration. IC50 values were calculated as the concentration of inhibitor giving 50% inhibition (IC50) of the uninhibited enzyme activity (100%).

Row | Compound | IC50
1 | Cn1ccc(OCC23CN(C(=O)C[C@H]4CCOC4)C(CNc4cccc5c(N)nccc45)(C2)C3)cc1=O [Example 10, (R)-4-((1-(((1-aminoisoquinolin-5-yl)amino)methyl)-2-(2-(tetrahydrofuran-3-yl)acetyl)-2-azabicyclo[2.1.1]hexan-4-yl)methoxy)-1-methylpyridin-2(1H)-one] | 10 to 100 nM
2 | Cn1ccc(OCC23CN(C(=O)C[C@@H]4CCOC4)C(CNc4cccc5c(N)nccc45)(C2)C3)cc1=O [Example 11, (S)-4-((1-(((1-aminoisoquinolin-5-yl)amino)methyl)-2-(2-(tetrahydrofuran-3-yl)acetyl)-2-azabicyclo[2.1.1]hexan-4-yl)methoxy)-1-methylpyridin-2(1H)-one] | 10 to 100 nM
3 | C[C@@H](C(=O)N1CC2(COc3ccn(C)c(=O)c3)CC1(CNc1cccc3c(N)nccc13)C2)c1ccccc1 [Example 12, (R)-4-((1-(((1-aminoisoquinolin-5-yl)amino)methyl)-2-(2-phenylpropanoyl)-2-azabicyclo[2.1.1]hexan-4-yl)methoxy)-1-methylpyridin-2(1H)-one] | 10 to 100 nM
4 | C[C@H](C(=O)N1CC2(COc3ccn(C)c(=O)c3)CC1(CNc1cccc3c(N)nccc13)C2)c1ccccc1 [Example 13, (S)-4-((1-(((1-aminoisoquinolin-5-yl)amino)methyl)-2-(2-phenylpropanoyl)-2-azabicyclo[2.1.1]hexan-4-yl)methoxy)-1-methylpyridin-2(1H)-one] | 10 to 100 nM
5 | Cn1ccc(OCC23CN(C(=O)CCc4ccc5c(c4)CCO5)C(CNc4cccc5c(N)nccc45)(C2)C3)cc1=O [Example 14, 4-((1-(((1-aminoisoquinolin-5-yl)amino)methyl)-2-(3-(2,3-dihydrobenzofuran-5-yl)propanoyl)-2-azabicyclo[2.1.1]hexan-4-yl)methoxy)-1-methylpyridin-2(1H)-one] | 10 to 100 nM
6 | Cn1ccc(OCC23CN(C(=O)Cc4ccc5c(c4)CCCO5)C(CNc4cccc5c(N)nccc45)(C2)C3)cc1=O [Example 15, 4-((1-(((1-Aminoisoquinolin-5-yl)amino)methyl)-2-(2-(chroman-6-yl)acetyl)-2-azabicyclo[2.1.1]hexan-4-yl)methoxy)-1-methylpyridin-2(1H)-one] | 1 to 10 nM
7 | CC(=O)N1CCC(CC(=O)N2CC3(COc4ccn(C)c(=O)c4)CC2(CNc2cccc4c(N)nccc24)C3)CC1 [Example 16, 4-((2-(2-(1-acetylpiperidin-4-yl)acetyl)-1-(((1-aminoisoquinolin-5-yl)amino)methyl)-2-azabicyclo[2.1.1]hexan-4-yl)methoxy)-1-methylpyridin-2(1H)-one] | 10 to 100 nM
8 | Cn1ccc(OCC23CN(C(=O)Cc4ccc5c(c4)NC(=O)CO5)C(CNc4cccc5c(N)nccc45)(C2)C3)cc1=O [Example 17, 6-(2-(1-(((1-aminoisoquinolin-5-yl)amino)methyl)-4-(((1-methyl-2-oxo-1,2-dihydropyridin-4-yl)oxy)methyl)-2-azabicyclo[2.1.1]hexan-2-yl)-2-oxoethyl)-2H-benzo[b][1,4]oxazin-3(4H)-one] | 1 to 10 nM
9 | Cn1ccc(OCC23CN(C(=O)C4(c5ccccc5)CC4)C(CNc4cccc5c(N)nccc45)(C2)C3)cc1=O [Example 18, 4-((1-(((1-aminoisoquinolin-5-yl)amino)methyl)-2-(1-phenylcyclopropane-1-carbonyl)-2-azabicyclo[2.1.1]hexan-4-yl)methoxy)-1-methylpyridin-2(1H)-one] | 100 to 300 nM
10 | Cn1ccc(CCC(=O)N2CC3(COc4ccn(C)c(=O)c4)CC2(CNc2cccc4c(N)nccc24)C3)cc1=O [Example 19, 4-((1-(((1-aminoisoquinolin-5-yl)amino)methyl)-2-(3-(1-methyl-2-oxo-1,2-dihydropyridin-4-yl)propanoyl)-2-azabicyclo[2.1.1]hexan-4-yl)methoxy)-1-methylpyridin-2(1H)-one] | 10 to 100 nM
11 | Cc1cc(OCC23CN(C(=O)CC45CCC(CC4)CC5)C(CNc4cccc5c(N)nccc45)(C2)C3)cc(=O)n1C [Example 21, 4-((1-(((1-aminoisoquinolin-5-yl)amino)methyl)-2-(2-(bicyclo[2.2.2]octan-1-yl)acetyl)-2-azabicyclo[2.1.1]hexan-4-yl)methoxy)-1,6-dimethylpyridin-2(1H)-one] | 10 to 100 nM
12 | Cc1cc(OCC23CN(C(=O)CC45CCC(CC4)C5)C(CNc4cccc5c(N)nccc45)(C2)C3)cc(=O)n1C [Example 22, 4-((1-(((1-aminoisoquinolin-5-yl)amino)methyl)-2-(2-(bicyclo[2.2.1]heptan-1-yl)acetyl)-2-azabicyclo[2.1.1]hexan-4-yl)methoxy)-1,6-dimethylpyridin-2(1H)-one] | 10 to 100 nM
13 | Cc1cc(OCC23CN(C(=O)CC4CCC(F)(F)CC4)C(CNc4cccc5c(N)nccc45)(C2)C3)cc(=O)n1C [Example 23, 4-((1-(((1-aminoisoquinolin-5-yl)amino)methyl)-2-(2-(4,4-difluorocyclohexyl)acetyl)-2-azabicyclo[2.1.1]hexan-4-yl)methoxy)-1,6-dimethylpyridin-2(1H)-one] | 10 to 100 nM
14 | Cc1cc(OCC23CN(C(=O)CC45CC(C4)C5)C(CNc4cccc5c(N)nccc45)(C2)C3)cc(=O)n1C [Example 26, 4-((1-(((1-aminoisoquinolin-5-yl)amino)methyl)-2-(2-(bicyclo[1.1.1]pentan-1-yl)acetyl)-2-azabicyclo[2.1.1]hexan-4-yl)methoxy)-1,6-dimethylpyridin-2(1H)-one] | 10 to 100 nM
15 | CC(C(=O)N1CC2(COc3ccn(C)c(=O)c3)CC1(CNc1cccc3c(N)nccc13)C2)c1ccc2c(c1)CCO2 (stereo not shown) [Example 27, 4-((1-(((1-aminoisoquinolin-5-yl)amino)methyl)-2-(2-(2,3-dihydrobenzofuran-5-yl)propanoyl)-2-azabicyclo[2.1.1]hexan-4-yl)methoxy)-1-methylpyridin-2(1H)-one] | 10 to 100 nM
16 | Cc1cc(OCC23CN(C(=O)C(C)c4ccc5c(c4)CCO5)C(CNc4cccc5c(N)nccc45)(C2)C3)cc(=O)n1C (stereo not shown) [Example 28, 4-((1-(((1-aminoisoquinolin-5-yl)amino)methyl)-2-(2-(2,3-dihydrobenzofuran-5-yl)propanoyl)-2-azabicyclo[2.1.1]hexan-4-yl)methoxy)-1,6-dimethylpyridin-2(1H)-one] | 10 to 100 nM
17 | CC(=O)NC(C)C(=O)N1CC2(COc3cc(C)n(C)c(=O)c3)CC1(CNc1cccc3c(N)nccc13)C2 (stereo not shown) [Example 29, N-(1-(1-(((1-Aminoisoquinolin-5-yl)amino)methyl)-4-(((1,6-dimethyl-2-oxo-1,2-dihydropyridin-4-yl)oxy)methyl)-2-azabicyclo[2.1.1]hexan-2-yl)-1-oxopropan-2-yl)acetamide] | 10 to 100 nM
18 | Cn1ccc(OCC23CN(C(=O)N4CCOCC4)C(CNc4cccc5c(N)nccc45)(C2)C3)cc1=O [Example 31, 4-((1-(((1-aminoisoquinolin-5-yl)amino)methyl)-2-(morpholine-4-carbonyl)-2-azabicyclo[2.1.1]hexan-4-yl)methoxy)-1-methylpyridin-2(1H)-one] | 10 to 100 nM
19 | C[C@H](NC(=O)N1CC2(COc3ccn(C)c(=O)c3)CC1(CNc1cccc3c(N)nccc13)C2)c1ccccc1 [Example 32, (S)-1-(((1-aminoisoquinolin-5-yl)amino)methyl)-4-(((1-methyl-2-oxo-1,2-dihydropyridin-4-yl)oxy)methyl)-N-(1-phenylethyl)-2-azabicyclo[2.1.1]hexane-2-carboxamide] | 10 to 100 nM
20 | C[C@@H](NC(=O)N1CC2(COc3ccn(C)c(=O)c3)CC1(CNc1cccc3c(N)nccc13)C2)c1ccccc1 [Example 33, (R)-1-(((1-aminoisoquinolin-5-yl)amino)methyl)-4-(((1-methyl-2-oxo-1,2-dihydropyridin-4-yl)oxy)methyl)-N-(1-phenylethyl)-2-azabicyclo[2.1.1]hexane-2-carboxamide] | 10 to 100 nM
21 | Cn1ccc(OCC23CN(C(=O)N4CCc5ccccc54)C(CNc4cccc5c(N)nccc45)(C2)C3)cc1=O [Example 34, 4-((1-(((1-aminoisoquinolin-5-yl)amino)methyl)-2-(indoline-1-carbonyl)-2-azabicyclo[2.1.1]hexan-4-yl)methoxy)-1-methylpyridin-2(1H)-one] | 10 to 100 nM
22 | Cn1ccc(OCC23CN(C(=O)N4CCOc5ccccc54)C(CNc4cccc5c(N)nccc45)(C2)C3)cc1=O [Example 35, 4-((1-(((1-aminoisoquinolin-5-yl)amino)methyl)-2-(3,4-dihydro-2H-benzo[b][1,4]oxazine-4-carbonyl)-2-azabicyclo[2.1.1]hexan-4-yl)methoxy)-1-methylpyridin-2(1H)-one] | 10 to 100 nM
